Results published in US9743676B2, “Pesticidal compositions comprising a solid insecticide and an essential oil” (AirRx Antimicrobial Sciences Inc., priority 2015, dated 2017).
Like-named read-outs stand apart in the source and are kept apart here.

Experiments:
[1] = system: nonresistant strain of bed bug; conditions: for Residual Effect (% Knockdown & Mortality/hrs) 24: 24 hrs; for Residual Effect (% Knockdown & Mortality/hrs) 48: 48 hrs; for Residual Effect (% Knockdown & Mortality/hrs) 72: 72 hrs
Procedure: The compositions and individual components thereof were prepared to provide the appropriate rates of application for combinations of acetamiprid, chlorfenapyr, and rosemary oil, as well as acetamiprid, chlorfenapyr, and rosemary oil paired and alone. The insecticide formula(s) were aliquoted (100 μL) into a glass petri dish (100 mm). Filter paper was placed on top of the solution. Ten adult bed bugs were then placed on top of the filter paper and morbidity and moribundity (knockdown) and mortality was recorded at 5 minutes for each treatment combination and the control. After 2 hours, bed bugs were removed from the treated surface and placed in a holding chamber. Bed bug morbidity, moribund, and mortality was recorded every 24 hours for 7 days.
Dash indicates no knockdown or mortality during exposure.

[2] = system: adult bed bugs resistant strain (UMC) colony; experiment: Contact lethal time of pyrethroids and rosemary oil on treated filter paper, Example 4; type: in vivo, bed bug; conditions: rate 0.01 % by weight
Procedure: The control is 100 μL […]. Filter paper was then placed on top of the solution.

Structure (SMILES): CC(=NC#N)N(C)Cc1ccc(Cl)nc1 [Acetamiprid, N-[(6-chloro-3-pyridyl)methyl]-N′-cyano-N-methyl-acetamidine]
- 2 hour exposure (min) LT50 ([1]; rate 0.01 % by weight): 39.3 min
- 2 hour exposure (min) LT99 ([1]; rate 0.01 % by weight): 38038.1 min
- Residual Effect (% Knockdown & Mortality/hrs) 24 ([1]; rate 0.01 % by weight): 10.0%
- Residual Effect (% Knockdown & Mortality/hrs) 48 ([1]; rate 0.01 % by weight): 20.0%
- Residual Effect (% Knockdown & Mortality/hrs) 72 ([1]; rate 0.01 % by weight): 20.0%
- 2 hour exposure (min) LT50 ([1]; rate 0.1 % by weight): 22.4 min
- 2 hour exposure (min) LT99 ([1]; rate 0.1 % by weight): 12565.9 min
- Residual Effect (% Knockdown & Mortality/hrs) 24 ([1]; rate 0.1 % by weight): 20.0%
- Residual Effect (% Knockdown & Mortality/hrs) 48 ([1]; rate 0.1 % by weight): 10.0%
- Residual Effect (% Knockdown & Mortality/hrs) 72 ([1]; rate 0.1 % by weight): 10.0%
- 2 hour exposure (min) LT50 ([1]; rate 1.0 % by weight): 7.0 min
- 2 hour exposure (min) LT99 ([1]; rate 1.0 % by weight): 510.8 min
- Residual Effect (% Knockdown & Mortality/hrs) 24 ([1]; rate 1.0 % by weight): 40.0%
- Residual Effect (% Knockdown & Mortality/hrs) 48 ([1]; rate 1.0 % by weight): 30.0%
- Residual Effect (% Knockdown & Mortality/hrs) 72 ([1]; rate 1.0 % by weight): 50.0%

Structure (SMILES): CC1(C)C(C=C(Cl)Cl)C1C(=O)OCc1cccc(Oc2ccccc2)c1 (stereo not shown) [Permethrin, permethrin]
- LT50 [2]: 20.78 min
- LT95 [2]: 490.348 min

Structure (SMILES): CC(C)=CC1C(C(=O)OCN2C(=O)C3=C(CCCC3)C2=O)C1(C)C (stereo not shown) [Tetramethrin, tetramethrin]
- LT50 [2]: 14000 min
- LT95 [2]: 6.5e+06 min

Structure (SMILES): CCOCn1c(-c2ccc(Cl)cc2)c(C#N)c(Br)c1C(F)(F)F [Chlorfenapyr, 4-Bromo-2-(4-chlorophenyl)-1-ethoxymethyl-5-trifluoromethyl-1H-pyrrole-3-carbonitrile]
- Residual Effect (% Knockdown & Mortality/hrs) 24 ([1]; rate 0.01 % by weight): 0.0%
- Residual Effect (% Knockdown & Mortality/hrs) 48 ([1]; rate 0.01 % by weight): 0.0%
- Residual Effect (% Knockdown & Mortality/hrs) 72 ([1]; rate 0.01 % by weight): 0.0%
- Residual Effect (% Knockdown & Mortality/hrs) 24 ([1]; rate 0.1 % by weight): 30.0%
- Residual Effect (% Knockdown & Mortality/hrs) 48 ([1]; rate 0.1 % by weight): 50.0%
- Residual Effect (% Knockdown & Mortality/hrs) 72 ([1]; rate 0.1 % by weight): 70.0%
- Residual Effect (% Knockdown & Mortality/hrs) 24 ([1]; rate 1.0 % by weight): 40.0%
- Residual Effect (% Knockdown & Mortality/hrs) 48 ([1]; rate 1.0 % by weight): 80.0%
- Residual Effect (% Knockdown & Mortality/hrs) 72 ([1]; rate 1.0 % by weight): 100.0%
